# Article PMC11062899, “De novo development of small cyclic peptides that are orally bioavailable” (Nature Chemical Biology, 2023)
# Several values for one entry are separate records, joined by “and”; a condition that tells them apart may be missing. Equal values may be shown once.
# How the values were obtained:
# [1] = Passive artificial membrane permeability (PAMPA); conditions: for PAMPA permeability: % permeability: 50 μM, 12–18 h, acceptor concentration relative to equilibrium; for Papp at 50 μM / Permeability% Average / Permeability% R1 / Permeability% R3: PAMPA; for Papp at 50 μM: pH 7.4; for Permeability% Average: average of R1-R3; for Permeability% R1: replicate R1; for Permeability% R1 / Permeability% R3: TIC of top well sample relative to sample at theoretical equilibrium; for Permeability% R3: replicate R3
# [2] = molecular target: human α-thrombin (Homo sapiens, UniProt P00734); assay: Protease inhibition, Ki for human α-thrombin (fluorogenic substrate Z-Gly-Gly-Arg-AMC); assay type: biochemical; conditions: replicates R1-R3
# Summary of the method: (§1)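 Ki derived through Cheng–Prusoff from IC50s (four-parameter logistic fit) against activity of peptide-free controls. Product fluorescence was read every 3 min over 30 min at 25 °C, substrate Z-Gly-Gly-Arg-AMC at 50 μM. Enzyme was 2 nM human or 3 nM rat α-thrombin, pH 7.4 buffer.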
# [3] = molecular target: T1, rat α-thrombin (Rattus norvegicus, UniProt P18292); assay: Protease inhibition, Ki for rat α-thrombin (fluorogenic substrate Z-Gly-Gly-Arg-AMC); assay type: biochemical; conditions: replicates R1-R3
# T1 construct: rat α-thrombin (Molecular Innovations) were used at final concentrations of 2 nM and 3 nM; purchased Molecular Innovations
# Summary of the method: as §1
# [4] = tested on: porcine pancreatin; assay: Peptide stability in simulated intestinal fluid (SIF); assay type: in vitro ADME; conditions: after 8 h vs 0 h (TIC); for SIF stability, Residual peptide Average: average of R1-R3; for SIF stability, Residual peptide: single replicates R1-R3
# Summary of the method: (§2)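 Peptide from a 1 mM DMSO stock was added to fluid pre-warmed at 37 °C. SGF was pH 1.2 NaCl with porcine pepsin (0.32 g per 100 ml), and SIF was pH 6.8 potassium phosphate with porcine pancreatin (1 g per 100 ml). Supernatant peptide was quantified by LC–MS, with residual expressed as T1/T0.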
# [5] = as above; assay type: in vitro ADME, porcine; conditions: simulated gi fluid; 8 h, 37 °C, pH 6.8; read-out: Proteolytic stability: SIF (8 h) % remaining
# Summary of the method: as §2
# [6] = molecular target: T2, porcine pepsin (Sus scrofa, UniProt P00791); assay: Peptide stability in simulated gastric fluid (SGF); assay type: in vitro ADME; conditions: for SGF stability, Residual peptide Average / SGF stability, Residual peptide: after 8 h vs 0 h (TIC); for SGF stability, Residual peptide Average: average of R1-R3; for SGF stability, Residual peptide: single replicates R1-R3; for remaining at 8 h: simulated gi fluid, 37 °C, pH 1.2, read-out: Proteolytic stability: SGF (8 h) % remaining
# T2 construct: 0.32 g of porcine pepsin (Sigma-Aldrich, P7125) was dissolved under gentle agitation; purchased Sigma-Aldrich P7125
# T2 sequence (P00791 60-385): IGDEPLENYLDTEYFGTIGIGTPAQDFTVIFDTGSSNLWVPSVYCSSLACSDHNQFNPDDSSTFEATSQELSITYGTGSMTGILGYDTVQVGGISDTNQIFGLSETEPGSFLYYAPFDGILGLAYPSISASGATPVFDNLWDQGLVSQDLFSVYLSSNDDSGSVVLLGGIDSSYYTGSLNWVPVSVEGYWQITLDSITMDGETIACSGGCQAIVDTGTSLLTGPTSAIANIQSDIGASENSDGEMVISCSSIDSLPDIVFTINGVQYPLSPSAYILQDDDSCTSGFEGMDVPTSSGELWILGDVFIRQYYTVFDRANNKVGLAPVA
# Summary of the method: as §2
# [7] = Metabolic stability in rat liver microsomes (RLMs); conditions: rat, microsomes
# [8] = peptide 1.33E+02 uM, slope of proteolytic substrate cleavage over time
# [9] = CL (ul/min/mg protein) R1, RLM CL, replicate R1
# [10] = CL (ul/min/mg protein) R2, RLM CL, replicate R2
# [11] = CL (ul/min/mg protein) R3, RLM CL, replicate R3
# [12] = Half Life (min) R1, RLM metabolic stability, replicate R1, 0-60 min
# [13] = Half Life (min) R2, RLM metabolic stability, replicate R2, 0-60 min
# [14] = Half Life (min) R3, RLM metabolic stability, replicate R3, 0-60 min
# [15] = Metabolic stability: Half life T1/2 (min), RLMs, mean and SD, three measurements
# [16] = Metabolic stability: RLM CL (ul/min/mg), RLMs, mean and SD, three measurements
compound,measurement,setting,value
O=C1CCSC/C=C/CSCCNC(=O)[C@H](CNC(=O)c2ccc(Cl)s2)NC(=O)[C@H](Cc2ccccn2)N1 [compound 22],PAMPA permeability: % permeability,[1],16 ± 7%
same,Papp at 50 μM,[1],1.05 ×10⁻⁶ cm/s
same,Permeability% Average,[1],15.5%
same,Permeability% R1,[1],9.36%
same,Permeability% R3,[1],23.67%
same,"Human alpha thrombin inhibition, slope normalized to DMSO",[2]; peptide 1.02E-03 uM,102.8 and 97.7 and 93.9
same,"Human alpha thrombin inhibition, slope normalized to DMSO",[2]; peptide 1.04E+00 uM,77.5 and 70.0 and 74.3
same,"Human alpha thrombin inhibition, slope normalized to DMSO",[2]; peptide 1.27E-04 uM,100.4 and 110.4 and 99.0
same,"Human alpha thrombin inhibition, slope normalized to DMSO",[2]; peptide 1.30E-01 uM,97.9 and 99.8 and 91.2
same,"Human alpha thrombin inhibition, slope normalized to DMSO",[2]; [8],5.1 and 4.3 and 6.3
same,"Human alpha thrombin inhibition, slope normalized to DMSO",[2]; peptide 1.63E-02 uM,96.1 and 101.1 and 95.8
same,"Human alpha thrombin inhibition, slope normalized to DMSO",[2]; peptide 1.67E+01 uM,20.9 and 21.1 and 17.2
same,"Human alpha thrombin inhibition, slope normalized to DMSO",[2]; peptide 2.03E-03 uM,100.4 and 98.0 and 100.5
same,"Human alpha thrombin inhibition, slope normalized to DMSO",[2]; peptide 2.08E+00 uM,66.4 and 63.2 and 62.8
same,"Human alpha thrombin inhibition, slope normalized to DMSO",[2]; peptide 2.54E-04 uM,104.5 and 97.0 and 96.4
same,"Human alpha thrombin inhibition, slope normalized to DMSO",[2]; peptide 2.60E-01 uM,95.1 and 92.0 and 90.3
same,"Human alpha thrombin inhibition, slope normalized to DMSO",[2]; peptide 3.18E-05 uM,99.7 and 98.9 and 101.2
same,"Human alpha thrombin inhibition, slope normalized to DMSO",[2]; peptide 3.26E-02 uM,99.6 and 98.9 and 96.4
same,"Human alpha thrombin inhibition, slope normalized to DMSO",[2]; peptide 3.33E+01 uM,10.4 and 11.3 and 12.9
same,"Human alpha thrombin inhibition, slope normalized to DMSO",[2]; peptide 4.07E-03 uM,102.1 and 98.1 and 100.5
same,"Human alpha thrombin inhibition, slope normalized to DMSO",[2]; peptide 4.17E+00 uM,49.4 and 48.2 and 42.7
same,"Human alpha thrombin inhibition, slope normalized to DMSO",[2]; peptide 5.09E-04 uM,105.6 and 97.1 and 101.8
same,"Human alpha thrombin inhibition, slope normalized to DMSO",[2]; peptide 5.21E-01 uM,84.4 and 88.3 and 83.4
same,"Human alpha thrombin inhibition, slope normalized to DMSO",[2]; peptide 6.36E-05 uM,104.9 and 95.6
same,"Human alpha thrombin inhibition, slope normalized to DMSO",[2]; peptide 6.51E-02 uM,99.3 and 101.7 and 95.4
same,"Human alpha thrombin inhibition, slope normalized to DMSO",[2]; peptide 6.67E+01 uM,5.8 and 5.7 and 8.8
same,"Human alpha thrombin inhibition, slope normalized to DMSO",[2]; peptide 8.14E-03 uM,101.9 and 98.8 and 103.6
same,"Human alpha thrombin inhibition, slope normalized to DMSO",[2]; peptide 8.33E+00 uM,31.4 and 24.4 and 30.5
same,"Rat alpha thrombin inhibition, slope normalized to DMSO",[3]; [8],2.8 and 3.3 and 1.9
same,"Rat alpha thrombin inhibition, slope normalized to DMSO",[3]; peptide 1.67E+01 uM,7.6 and 6.1 and 7.2
same,"Rat alpha thrombin inhibition, slope normalized to DMSO",[3]; peptide 2.08E+00 uM,33.9 and 32.6 and 33.7
same,"Rat alpha thrombin inhibition, slope normalized to DMSO",[3]; peptide 3.33E+01 uM,4.8 and 4.2 and 4.5
same,"Rat alpha thrombin inhibition, slope normalized to DMSO",[3]; peptide 4.17E+00 uM,21.3 and 20.5 and 20.2
same,"Rat alpha thrombin inhibition, slope normalized to DMSO",[3]; peptide 6.67E+01 uM,3.3 and 2.6 and 2.7
same,"Rat alpha thrombin inhibition, slope normalized to DMSO",[3]; peptide 8.33E+00 uM,13.5 and 12.2 and 12.7
same,"SIF stability, Residual peptide Average",[4],96.16
same,"SIF stability, Residual peptide",[4],94.79 and 87.84 and 105.86
same,remaining at 8 h,[5],96 ± 9%
same,"SGF stability, Residual peptide Average",[6],96.43
same,"SGF stability, Residual peptide",[6],98.71 and 95.02 and 95.57
same,remaining at 8 h,[6],96 ± 2%
same,microsomal CLint,[7]; [9],266 µL/min/mg
same,microsomal CLint,[7]; [10],255 µL/min/mg
same,microsomal CLint,[7]; [11],248 µL/min/mg
same,half-life,[7]; [12],5.21 min
same,half-life,[7]; [13],5.44 min
same,half-life,[7]; [14],5.58 min
same,half-life,[7]; [15],5.4 ± 0.2 min
same,microsomal CLint,[7]; [16],260 ± 10 µL/min/mg
O=C(N[C@H]1CSCc2cccc(n2)CSCCNC(=O)[C@H](Cc2ccccn2)NC(=O)C2(CCCC2)NC1=O)c1ccc(Cl)s1 [compound 28],PAMPA permeability: % permeability,[1],30 ± 7%
same,Papp at 50 μM,[1],2.29 ×10⁻⁶ cm/s
same,Permeability% Average,[1],29.5%
same,Permeability% R1,[1],35.05%
same,Permeability% R3,[1],31.19%
same,"Human alpha thrombin inhibition, slope normalized to DMSO",[2]; peptide 1.02E-03 uM,100.6 and 102.2 and 99.4
same,"Human alpha thrombin inhibition, slope normalized to DMSO",[2]; peptide 1.04E+00 uM,91.1 and 87.4 and 92.0
same,"Human alpha thrombin inhibition, slope normalized to DMSO",[2]; peptide 1.27E-04 uM,100.4 and 99.0 and 100.8
same,"Human alpha thrombin inhibition, slope normalized to DMSO",[2]; peptide 1.30E-01 uM,103.2 and 98.5 and 101.7
same,"Human alpha thrombin inhibition, slope normalized to DMSO",[2]; [8],16.8 and 18.7 and 23.0
same,"Human alpha thrombin inhibition, slope normalized to DMSO",[2]; peptide 1.63E-02 uM,79.4 and 98.4 and 92.1
same,"Human alpha thrombin inhibition, slope normalized to DMSO",[2]; peptide 1.67E+01 uM,53.5 and 53.3 and 56.4
same,"Human alpha thrombin inhibition, slope normalized to DMSO",[2]; peptide 2.03E-03 uM,77.9 and 96.7 and 93.1
same,"Human alpha thrombin inhibition, slope normalized to DMSO",[2]; peptide 2.08E+00 uM,88.5 and 72.9 and 90.5
same,"Human alpha thrombin inhibition, slope normalized to DMSO",[2]; peptide 2.54E-04 uM,100.6 and 92.1 and 94.0
same,"Human alpha thrombin inhibition, slope normalized to DMSO",[2]; peptide 2.60E-01 uM,98.5 and 95.3 and 96.4
same,"Human alpha thrombin inhibition, slope normalized to DMSO",[2]; peptide 3.18E-05 uM,102.4 and 100.9 (2×)
same,"Human alpha thrombin inhibition, slope normalized to DMSO",[2]; peptide 3.26E-02 uM,99.5 and 98.1 and 103.6
same,"Human alpha thrombin inhibition, slope normalized to DMSO",[2]; peptide 3.33E+01 uM,35.9 and 38.0 and 41.6
same,"Human alpha thrombin inhibition, slope normalized to DMSO",[2]; peptide 4.07E-03 uM,103.3 and 98.8 and 95.5
same,"Human alpha thrombin inhibition, slope normalized to DMSO",[2]; peptide 4.17E+00 uM,79.3 and 79.5 and 79.0
same,"Human alpha thrombin inhibition, slope normalized to DMSO",[2]; peptide 5.09E-04 uM,102.1 and 100.7 and 91.1
same,"Human alpha thrombin inhibition, slope normalized to DMSO",[2]; peptide 5.21E-01 uM,99.8 and 93.6 and 95.9
same,"Human alpha thrombin inhibition, slope normalized to DMSO",[2]; peptide 6.36E-05 uM,102.4 and 110.3 and 102.0
same,"Human alpha thrombin inhibition, slope normalized to DMSO",[2]; peptide 6.51E-02 uM,102.8 and 95.7 and 101.3
same,"Human alpha thrombin inhibition, slope normalized to DMSO",[2]; peptide 6.67E+01 uM,23.2 and 24.0 and 29.0
same,"Human alpha thrombin inhibition, slope normalized to DMSO",[2]; peptide 8.14E-03 uM,99.1 and 108.8 and 87.5
same,"Human alpha thrombin inhibition, slope normalized to DMSO",[2]; peptide 8.33E+00 uM,72.2 and 85.5 and 69.3
same,"Rat alpha thrombin inhibition, slope normalized to DMSO",[3]; [8],12.2 (2×) and 11.8
same,"Rat alpha thrombin inhibition, slope normalized to DMSO",[3]; peptide 1.67E+01 uM,38.3 and 37.3 and 38.4
same,"Rat alpha thrombin inhibition, slope normalized to DMSO",[3]; peptide 2.08E+00 uM,79.7 and 78.5 and 79.5
same,"Rat alpha thrombin inhibition, slope normalized to DMSO",[3]; peptide 3.33E+01 uM,24.3 and 23.3 and 23.8
same,"Rat alpha thrombin inhibition, slope normalized to DMSO",[3]; peptide 4.17E+00 uM,68.5 and 68.7 and 67.7
same,"Rat alpha thrombin inhibition, slope normalized to DMSO",[3]; peptide 6.67E+01 uM,14.7 and 14.3 and 13.4
same,"Rat alpha thrombin inhibition, slope normalized to DMSO",[3]; peptide 8.33E+00 uM,56.8 and 54.3 and 57.8
same,"SIF stability, Residual peptide Average",[4],94.01
same,"SIF stability, Residual peptide",[4],86.19 and 87.95 and 107.89
same,remaining at 8 h,[5],94 ± 12%
same,"SGF stability, Residual peptide Average",[6],95.21
same,"SGF stability, Residual peptide",[6],100.04 and 92.83 and 92.76
same,remaining at 8 h,[6],95 ± 4%
same,microsomal CLint,[7]; [9],81.1 µL/min/mg
same,microsomal CLint,[7]; [10],96.1 µL/min/mg
same,microsomal CLint,[7]; [11],78 µL/min/mg
same,half-life,[7]; [12],17.1 min
same,half-life,[7]; [13],14.4 min
same,half-life,[7]; [14],17.8 min
same,half-life,[7]; [15],16.4 ± 1.4 min
same,microsomal CLint,[7]; [16],85 ± 8 µL/min/mg
